Measurements published in patent publication US20230286983A1 (4E Therapeutics, Inc., priority 2020, published 2023).

Columns and labels:
P-gp (human MDR1, ABCB1) = assay: MDCK-MDR1 permeability (blood brain barrier permeability); type: in vitro ADME, Canine; settings: dog; for efflux ratio at 5 μM: MDCK-MDR1, 5 μM, read-out: Efflux ratio (ratio B-A/A-B); for Papp A→B at 5 μM: MDCK-MDR1, Apical to basolateral transport; for Papp A→B at 5 μM / Papp B→A at 5 μM: average of two experiments; for Papp B→A at 5 μM: MDCK-MDR1, Basolateral to apical transport
[1] = Liver microsome stability, mouse; type: in vitro ADME; settings: mouse, liver microsomes, mouse liver microsomes, Table 11b; read-out: T1/2
MNK1 = MNK1 (Homo sapiens, UniProt Q9BUB5); assay: MNK1 substrate phosphorylation assay; type: biochemical; settings: recombinant human kinase
MNK1, sequence (Q9BUB5 whole entry): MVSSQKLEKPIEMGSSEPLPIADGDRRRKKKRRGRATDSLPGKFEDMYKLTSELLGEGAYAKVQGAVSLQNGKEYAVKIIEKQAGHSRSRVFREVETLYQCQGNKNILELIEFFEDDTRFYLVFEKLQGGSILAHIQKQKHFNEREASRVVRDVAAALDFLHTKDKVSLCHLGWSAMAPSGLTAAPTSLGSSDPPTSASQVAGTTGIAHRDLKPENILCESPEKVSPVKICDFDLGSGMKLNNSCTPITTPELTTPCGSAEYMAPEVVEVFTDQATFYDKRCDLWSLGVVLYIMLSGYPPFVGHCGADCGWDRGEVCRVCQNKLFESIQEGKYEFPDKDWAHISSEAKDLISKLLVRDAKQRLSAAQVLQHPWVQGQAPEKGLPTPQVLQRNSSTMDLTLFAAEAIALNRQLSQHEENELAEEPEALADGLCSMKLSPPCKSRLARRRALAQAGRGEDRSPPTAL

[2] = system: eIF4E phosphorylation at Serine 209 in the human embryonic kidney (HEK) 293 cell line; assay: eIF4E phosphorylation in HEK 293 cells (fluorescent plate reader); type: cell-based; settings: eIF4E phosphorylation at Serine 209, 2 hours exposure
Procedure: The ability of MNK inhibitors described herein to inhibit eIF4E phosphorylation at Serine 209 in the human embryonic kidney (HEK) 293 cell line was tested by exposing the cells to compound for 2 hours and then measuring eIF4E phosphorylation with a phosphorylation-specific antibody in a fluorescent plate reader. These experiments were done with HEK-293 cells plated on 96 well plates. Following treatment, cells were fixed with ice cold methanol for 10 min and then washed in 1× phosphate buffered saline (PBS) and the permeabilized with 0.02% Triton X-100 in 10% normal goat serum made up in PBS. Primary antibody was applied overnight at a concentration dilution of 1:2000 (p-eIF4E antibody from Cell Signaling ab76256). Following washing, cells were then exposed to secondary antibody conjugated to alexa-fluor 488 and then visualized on a Syngergy HTX plate reader. Fluorescence for p-eIF4E was measured and normalized to total DAPI fluorescence to determine the percentage of eIF4E phosphorylation in each well. Data were plotted in Graphpad Prism V8 to determine concentration-response effects and calculate IC50 values.

MNK2 = MNK2 (Homo sapiens, UniProt Q9HBH9); assay: MNK2 substrate phosphorylation assay; type: biochemical; settings: recombinant human kinase
MNK2, sequence (Q9HBH9 whole entry): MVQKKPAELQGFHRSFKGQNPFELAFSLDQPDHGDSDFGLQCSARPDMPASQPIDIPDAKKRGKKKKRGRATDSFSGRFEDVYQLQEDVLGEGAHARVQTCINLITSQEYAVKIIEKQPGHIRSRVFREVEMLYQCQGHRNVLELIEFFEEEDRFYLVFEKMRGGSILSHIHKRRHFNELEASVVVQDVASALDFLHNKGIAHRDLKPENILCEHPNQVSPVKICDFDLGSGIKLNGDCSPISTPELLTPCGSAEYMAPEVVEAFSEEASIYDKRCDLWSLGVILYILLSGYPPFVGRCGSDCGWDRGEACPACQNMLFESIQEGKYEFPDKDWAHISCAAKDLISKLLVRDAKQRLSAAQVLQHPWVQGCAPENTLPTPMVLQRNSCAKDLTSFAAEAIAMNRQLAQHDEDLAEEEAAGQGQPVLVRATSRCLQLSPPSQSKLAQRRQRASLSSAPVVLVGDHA

[3] = Liver microsome stability, human; type: in vitro ADME; settings: liver microsomes; for half-life: read-out: Human liver microsomes t1/2
[4] = Liver microsome stability, rat; type: in vitro ADME; settings: Rat liver microsomes (#); for microsomal CLint: read-out: CLint rodent; for half-life: read-out: Rodent liver microsomes t1/2

Row | SMILES | IC50 (MNK1) | IC50 (MNK2) | IC50 ([2]; Homo sapiens, HEK293, 2 h) | further results
1 | Cc1cc(Nc2cc(N)ncn2)c(=O)n2c1C(=O)NC21Cc2ccccc2[C@@H]1F (single isomer, unassigned) [Compound 4ET-01-010B, 6-((6-Aminopyrimidin-4-yl)amino)-1′-fluoro-8-methyl-1′,3′-dihydro-2H-spiro[imidazo[1,5-a]pyridine-3,2′-indene]-1,5-dione] | 348 nM | 96.6 nM | – | IC50 [2]: 71.3 nM
2 | Cc1cc(Nc2cc(N)ncn2)c(=O)n2c1C(=O)NC21CCCC1 [Compound 4ET-01-001, 6′-((6-Aminopyrimidin-4-yl)amino)-8′-methyl-2′H-spiro[cyclopentane-1,3′-imidazo[1,5-a]pyridine]-1′,5′-dione] | – | – | – | IC50 ([2]; Homo sapiens, HEK293): 10.9 nM
3 | Cc1cc(Nc2cc(N3CCN(CCN(C)C)CC3)ncn2)c(=O)n2c1C(=O)NC21CCCCC1 [Compound 4ET-02-002] | – | – | – | MNK1 IC50 (MNK1): inactive; MNK2 IC50 (MNK2): inactive
4 | Cc1cc(Nc2cc(NC(=O)C3CC3)ncn2)c(=O)n2c1C(=O)NC21CCCCC1 [Compound 4ET-02-003, N-(6-((8′-Methyl-1′,5′-dioxo-1′,5′-dihydro-2′H-spiro[cyclohexane-1,3′-imidazo[1,5-a]pyridin]-6′-yl)amino)pyrimidin-4-yl)cyclopropanecarboxamide] | 140 nM | 4.1 nM | 1.4 nM | microsomal CLint [3]: 2.31 µL/min/mg; half-life [3]: 9.98 h; microsomal CLint [4]: 3.75 µL/min/mg; half-life [4]: 6.17 h
5 | Cc1cc(Nc2cc(NCCN3CCOCC3)ncn2)c(=O)n2c1C(=O)NC21CCCCC1 [Compound 4ET-02-005] | 45.1 nM | 10.4 nM | 22.5 nM | efflux ratio at 5 μM (P-gp (human MDR1, ABCB1)): 9.4; Papp A→B at 5 μM (P-gp (human MDR1, ABCB1)): 4.5 ×10⁻⁶ cm/s; Papp B→A at 5 μM (P-gp (human MDR1, ABCB1)): 42.2 ×10⁻⁶ cm/s; microsomal CLint [3]: 5.64 µL/min/mg; half-life [3]: 4.1 h; microsomal CLint [4]: 13.6 µL/min/mg; half-life [4]: 1.7 h
6 | Cc1cc(Nc2cc(NC(=O)C(C)C)ncn2)c(=O)n2c1C(=O)NC2(C)C [Compound 4ET-03-001] | 119 nM | 11.9 nM | 47 nM | –
7 | Cc1cc(Nc2cc(NC(=O)C3CC3)ncn2)c(=O)n2c1C(=O)NC2(C)C [Compound 4ET-03-002, N-(6-((3,3,8-Trimethyl-1,5-dioxo-1,2,3,5-tetrahydroimidazo[1,5-a]pyridin-6-yl)amino)pyrimidin-4-yl)cyclopropanecarboxamide] | 133 nM | – | – | IC50 ([2]; Homo sapiens, HEK293): 5.3 nM
8 | Cc1cc(Nc2cc(NCCN3CCOCC3)ncn2)c(=O)n2c1C(=O)NC2(C)C [Compound 4ET-03-003] | 80.2 nM | 22.6 nM | 110 nM | –
9 | Cc1cc(Nc2cc(NCCN3CCOCC3)ncn2)c(=O)n2c1C(=O)NC21CCCC1 [Compound 4ET-03-006, 8′-Methyl-6′-((6-((2-morpholinoethyl)amino)pyrimidin-4-yl)amino)-2′H-spiro[cyclopentane-1,3′-imidazo[1,5-a]pyridine]-1′,5′-dione] | 64.6 nM | 5.9 nM | 53 nM | –
10 | Cc1cc(Nc2cc(NCCN3CCOCC3)ncn2)c(=O)n2c1C(=O)NC21CCOCC1 [Compound 4ET-03-010] | 382 nM | 84.8 nM | 164 nM | –
11 | Cc1cc(Nc2cc(NCCO)ncn2)c(=O)n2c1C(=O)NC21CCOCC1 [Compound 4ET-03-011] | 203 nM | 27.8 nM | 32.4 nM | –
12 | Cc1cc(Nc2cc(NCCNS(C)(=O)=O)ncn2)c(=O)n2c1C(=O)NC2(C)C [Compound 4ET-03-012] | 441 nM | 273 nM | – | –
13 | Cc1cc(Nc2cc(NCCNS(C)(=O)=O)ncn2)c(=O)n2c1C(=O)NC21CCOCC1 [Compound 4ET-03-014] | 107 nM | 32.8 nM | – | –
14 | Cc1cc(Nc2cc(NC(=O)C3CC3)ncn2)c(=O)n2c1C(=O)NC2(C)c1cccc(Cl)c1 (stereo not drawn) [Compound 4ET-03-035] | 128 nM | 4.3 nM | 8.7 nM | –
15 | Cc1cc(Nc2cc(NC(=O)C3CC3)ncn2)c(=O)n2c1C(=O)NC21CCOc2ccc(Cl)cc21 (stereo not drawn) [Compound 4ET-03-036] | 118 nM | 5.65 nM | 8.6 nM | –
16 | CCC1=CC2(CCC1)NC(=O)c1c(C)cc(Nc3cc(NC(=O)C4CC4)ncn3)c(=O)n12 (stereo not drawn) [Compound 4ET-03-039, N-(6-((3-Ethyl-8′-methyl-1′,5′-dioxo-1′,5′-dihydro-2′H-spiro[cyclohexane-1,3′-imidazo[1,5-a]pyridin]-2-en-6′-yl)amino)pyrimidin-4-yl)cyclopropanecarboxamide] | 31.6 nM | 1.62 nM | 2.6 nM | –

Second part, led by results:

Row | IC50 (MNK1) | IC50 (MNK2) | SMILES | IC50 ([2]; Homo sapiens, HEK293, 2 h) | further results
17 | 73.4 nM | 9.24 nM | Cc1cc(Nc2cc(N)ncn2)c(=O)n2c1C(=O)NC21Cc2ccccc2[C@@H]1F (single isomer, unassigned) [Compound 4ET-01-010A, 6-((6-Aminopyrimidin-4-yl)amino)-1′-fluoro-8-methyl-1′,3′-dihydro-2H-spiro[imidazo[1,5-a]pyridine-3,2′-indene]-1,5-dione] | – | efflux ratio at 5 μM (P-gp (human MDR1, ABCB1)): 1.5; Papp A→B at 5 μM (P-gp (human MDR1, ABCB1)): 42.7 ×10⁻⁶ cm/s; Papp B→A at 5 μM (P-gp (human MDR1, ABCB1)): 63.9 ×10⁻⁶ cm/s; half-life [1]: 1.92 h; IC50 [2]: 35.4 nM
18 | 35 nM | 3 nM | Cc1cc(Nc2cc(NC(=O)C3CC3)ncn2)c(=O)n2c1C(=O)NC21Cc2ccccc2[C@@H]1O (stereo in doubt) [Compound 4ET-03-063, N-(6-((1′-Hydroxy-8-methyl-1,5-dioxo-1,1′,3′,5-tetrahydro-2H-spiro[imidazo[1,5-a]pyridine-3,2′-inden]-6-yl)amino)pyrimidin-4-yl)cyclopropanecarboxamide] | 17 nM | efflux ratio at 5 μM (P-gp (human MDR1, ABCB1)): 10.2; Papp A→B at 5 μM (P-gp (human MDR1, ABCB1)): 8.7 ×10⁻⁶ cm/s; Papp B→A at 5 μM (P-gp (human MDR1, ABCB1)): 64.9 ×10⁻⁶ cm/s; half-life [1]: 3.7 h
19 | 346 nM | 14.4 nM | Cc1cc(Nc2cc(NCCC(=O)O)ncn2)c(=O)n2c1C(=O)NC21CCCCC1 [Compound 4ET-02-006, 3-((6-((8′-Methyl-1′,5′-dioxo-1′,5′-dihydro-2′H-spiro[cyclohexane-1,3′-imidazo[1,5-a]pyridin]-6′-yl)amino)pyrimidin-4-yl)amino)propanoic acid] | – | efflux ratio at 5 μM (P-gp (human MDR1, ABCB1)): 0.8; Papp A→B at 5 μM (P-gp (human MDR1, ABCB1)): 0.1 ×10⁻⁶ cm/s; Papp B→A at 5 μM (P-gp (human MDR1, ABCB1)): 0.1 ×10⁻⁶ cm/s
20 | 84.5 nM | 7.7 nM | Cc1cc(Nc2cc(NCCO)ncn2)c(=O)n2c1C(=O)NC2(C)C [Compound 4ET-03-004] | 86.6 nM | –
21 | 96.7 nM | 4.9 nM | Cc1cc(Nc2cc(NCCO)ncn2)c(=O)n2c1C(=O)NC21CCCC1 [Compound 4ET-03-007, 6′-((6-((2-Hydroxyethyl)amino)pyrimidin-4-yl)amino)-8′-methyl-2′H-spiro[cyclopentane-1,3′-imidazo[1,5-a]pyridine]-1′,5′-dione] | 10 nM | efflux ratio at 5 μM (P-gp (human MDR1, ABCB1)): 6.3; Papp A→B at 5 μM (P-gp (human MDR1, ABCB1)): 2.4 ×10⁻⁶ cm/s; Papp B→A at 5 μM (P-gp (human MDR1, ABCB1)): 15.1 ×10⁻⁶ cm/s
22 | 65.5 nM | 7.4 nM | Cc1cc(Nc2cc(NC(=O)C(C)C)ncn2)c(=O)n2c1C(=O)NC21CCOCC1 [Compound 4ET-03-008] | 52.6 nM | –
23 | 118 nM | 5.7 nM | Cc1cc(Nc2cc(NC(=O)C3CC3)ncn2)c(=O)n2c1C(=O)NC21Cc2ccc(Cl)cc2C1 (stereo not drawn) [Compound 4ET-03-054] | 8.6 nM | –
